In patent publication US6444669B1, “8,8A-DIHYDROINDENO[1,2-D]THIAZOLE DERIVATIVES WHICH CARRY IN THE 2-POSITION A SUBSTITUENT HAVING A SULFONAMIDE STRUCTURE OR SULFONE STRUCTURE; PROCESSES FOR THEIR PREPARATION AND THEIR USE AS MEDICAMENTS” (Aventis Pharma Deutschland GmbH, priority 2000, dated 2002):

What was measured:
male or female NMRI mice = assay: Anorectic action: cumulated evaporated milk consumption after 24 h feed withdrawal; format: in vivo
Experimental: The anorectic action was tested on male or female NMRI mice. After withdrawal of feed for 24 hours, the test preparation was administered via a stomach tube. Kept individually and with free access to drinking water, the animals were offered evaporated milk 30 minutes after the administration of the preparation. The consumption of evaporated milk was determined half-hourly for 3 hours and the general condition of the animals was observed. The measured milk consumption was compared with that of untreated control animals.

NS(=O)(=O)c1ccc(C2=NC3(O)c4ccc(Cl)cc4CC3S2)cc1 (stereo not drawn) [Example 5, 4-(6-Chloro-3a-hydroxy-8,8a-dihydro-3aH-indeno[1,2-d]thiazol-2-yl)benzenesulfonamide]
melting point: 160 °C | Reduction of the cumulated milk consumption in % of the control (male or female NMRI mice; male animals, oral dose 50 mg/kg, compared with untreated control animals): 95% | cumulated milk consumption of the treated animals (male or female NMRI mice; oral dose 50 mg/kg via stomach tube, N=5, milk consumption determined half-hourly for 3 hours): 5/0.08 ml
